Data on one compound can be found in ChEMBL document CHEMBL1159302, “Symplostatin 3, a new dolastatin 10 analogue from the marine cyanobacterium Symploca sp. VP452” (J Nat Prod, 2002).

Molecules are shown by their SMILES. Active and inactive are the calls of the source. The calls are words filed in the database; no cut-off is given here. Non-standard residues stand in square brackets, D forms with d. Residues, ends and D or L forms follow the SMILES beside them. *: point of attachment. Dolaproine = CO[C@@H]([C@@H]1CCCN1)[C@@H](C)C(=O)O; Dil = CC[C@H](C)[C@H](NC)[C@@H](CC(=O)O)OC; NMe2Val = CC(C)[C@@H](C(=O)*)N(C)C; PhLac = O=C(O)[C@@H](O)Cc1ccccc1

Common to all, as to assay type: functional, cell-based
The subject of assay [1] is A10. In words: Effect on morphology in rat A10 cells assessed as breakdown of nucleus into micronuclei.
In assay [2] the test system is LoVo. Briefly: Cytotoxicity against human LoVo cells by SRB assay.
The test system of assay [3] is A10. Briefly: Induction of cellular microtubule disrupting activity in rat A10 cells at 1 ug/ml after 24 hrs by indirect immunofluorescence technique.
Assay [4] deals with A10. Briefly: Induction of cellular microtubule disrupting activity in rat A10 cells at 0.1 ug/ml after 24 hrs by indirect immunofluorescence technique.
In assay [5] the test system is KB. In words: Cytotoxicity against human KB cells by SRB assay. A general note: Sulforhodamine B stains cellular protein and so reports cell mass.
In assay [6] the test system is A10. In words: Induction of actin filament disrupting activity in rat A10 cells by rhodamine-phalloidin staining.

Usually IC50 stands for the concentration that inhibits the measured activity by half. A lower IC50 goes with inhibition by little substance.

For the compound `CC[C@H](C)[C@@H]([C@@H](CC(=O)N1CCC[C@H]1[C@H](OC)[C@@H](C)C(=O)O[C@@H](Cc1ccccc1)C(=O)O)OC)N(C)C(=O)[C@@H](NC(=O)[C@H](C(C)C)N(C)C)C(C)C` [SYMPLOSTATIN 3] (NMe2Val-V[Dil][Dolaproine][PhLac]-OH), the result in assay [1], in assay [3] and in assay [4] was Active. For the same compound, the IC50 in assay [2] turned out to be 10.3 nM; in assay [5], 3.9 nM. Moreover, the result in assay [6] was inactive.
